The values below come from patent US11572508B2, “Non-linear surfactant” (Powdermet, Inc., priority 2018, dated 2023).

Data set [1] can be described thus: pH-controlled solubility and rock-face adsorption of isoelectric surfactant. The data set is classed as physicochemical. The source says:
An example of an isoelectric non-linear molecular surfactant is a modified rigid ring structure with a zwitterionic to control solubility and surface activity. Molecular surfactant is defined as a group of atoms bonded together, representing the smallest fundamental unit of a chemical compound. In one non-limiting descriptive example, cholic acid is bound to a zwitterionic bi-functional compound, such as threonine. One (1) equivalent of cholic acid is suspended in an aprotic polar solvent, tetrahydrofuran with the addition of a base catalysis, pyridine. The primed rigid ring moiety structure is titrated with one (1) to three (3) equivalents of a zwitterionic coupling agent, and/or silane threonine, in an aprotic polar solvent. Purified product has applications in surface modification chemistry across materials and production markets. One non-limiting identified application is the oil and gas industry's unconventional resource collections through improving production recovery by controlling the rock wettability and reducing the translation motion energy through rock porosity and fractures. The zwitterionic nature of the isoelectric non-linear molecular surfactant enables the production recovery increase by allowing the production team to control when the surfactant becomes insoluble and favors surface adsorption to the formation's porous and fracture surface. […]

A short description of data set [2]: emulsion suspension of liquid epoxy resin: particle size dispersion, suspension stability, pumping through sand packs. In kind it is physicochemical. As to conditions: 71 mM surfactant. The source says:
The suspension was maintained for up to 1 month unchanged.

Consider `CC(O)C(NC(=O)CCC(C)C1CCC2C3C(O)CC4CC(O)CCC4(C)C3CC(O)C12C)C(=O)O` (stereo not shown), for which the “pH at which surfactant is triggered to adsorb to the rock face” value in data set [1] (formation rock face) is listed as 5.6. In addition, the “pH at which surfactant is soluble in pumping solutions” value in data set [1] (pumping solutions) is “below 5.5”.
`C[C@H](CCC(=O)O)[C@H]1CC[C@H]2[C@@H]3[C@H](O)C[C@@H]4C[C@H](O)CC[C@]4(C)[C@H]3C[C@H](O)[C@]12C` [3α,7α,12α-trihydroxy-5β-cholan-24-oic acid]: in data set [2] (23 wt. % solids epoxy resin suspension), the “time suspension was maintained unchanged” value is reported as “up to 1 month”. Also, the “particle size dispersion D50 of nanoemulsion” value in data set [2] (23 wt. % solids suspension of bisphenol A/epichlorohydrin-derived liquid epoxy resin) came out at 450 nm.
